Test results: PubChem BioAssay (NCI)
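The compound was tested at five concentrations on cells cultured in 96-well plates, with a 48-hour exposure period. Abbreviation: GI50, concentration required for 50% inhibition of growth. TGI: concentration producing complete growth inhibition.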

What was measured:
Assay in all cases: inhibition of tumour cell growth, NCI panel, 48 h
SK-MEL-5 melanoma = tested on: SK-MEL-5 melanoma
SK-OV-3 ovarian = tested on: SK-OV-3 ovarian
HS 578T breast = tested on: HS 578T breast
K-562 leukemia = tested on: K-562 leukemia
HOP-62 NSCLC = tested on: HOP-62 NSCLC
NCI-H522 lung = tested on: NCI-H522 lung
RPMI-8226 leukemia = tested on: RPMI-8226 leukemia
HCT-15 colon = tested on: HCT-15 colon
786-0 renal = tested on: 786-0 renal
MALME-3M melanoma = tested on: MALME-3M melanoma
A549 NSCLC = tested on: A549 NSCLC
OVCAR-8 ovarian = tested on: OVCAR-8 ovarian
HOP-92 NSCLC = tested on: HOP-92 NSCLC
KM12 colon = tested on: KM12 colon
MOLT-4 leukemia = tested on: MOLT-4 leukemia
RXF 393 renal = tested on: RXF 393 renal
LOX IMVI melanoma = tested on: LOX IMVI melanoma
SR leukemia = tested on: SR leukemia
U251 CNS = tested on: U251 CNS
MDA-MB-435 = tested on: MDA-MB-435
SNB-19 CNS = tested on: SNB-19 CNS
BT-549 breast = tested on: BT-549 breast
TK-10 renal = tested on: TK-10 renal
OVCAR-5 ovarian = tested on: OVCAR-5 ovarian
UACC-62 melanoma = tested on: UACC-62 melanoma
DU-145 prostate = tested on: DU-145 prostate
CAKI-1 renal = tested on: CAKI-1 renal
SN12C renal = tested on: SN12C renal
HT29 colon = tested on: HT29 colon
SF-268 CNS = tested on: SF-268 CNS
UACC-257 melanoma = tested on: UACC-257 melanoma
ACHN renal = tested on: ACHN renal
IGROV1 ovarian = tested on: IGROV1 ovarian
NCI-H460 lung = tested on: NCI-H460 lung
HCT-116 colon = tested on: HCT-116 colon
MCF7 breast = tested on: MCF7 breast
UO-31 renal = tested on: UO-31 renal
MDA-MB-231 breast = tested on: MDA-MB-231 breast
OVCAR-4 ovarian = tested on: OVCAR-4 ovarian
CCRF-CEM leukemia = tested on: CCRF-CEM leukemia
SF-539 CNS = tested on: SF-539 CNS
OVCAR-3 ovarian = tested on: OVCAR-3 ovarian
PC-3 prostate = tested on: PC-3 prostate
SF-295 CNS = tested on: SF-295 CNS
NCI-H23 lung = tested on: NCI-H23 lung
HCC-2998 colon = tested on: HCC-2998 colon
NCI/ADR-RES ovarian = tested on: NCI/ADR-RES ovarian
EKVX NSCLC = tested on: EKVX NSCLC
HL-60(TB) leukemia = tested on: HL-60(TB) leukemia
SNB-75 CNS = tested on: SNB-75 CNS
M14 melanoma = tested on: M14 melanoma
SW-620 colon = tested on: SW-620 colon

Question: Which GI50 (SK-MEL-5 melanoma) does the source give for `COC(=O)[C@@H](C)C[C@H](Cc1ccccc1)NC(=O)c1cccc([C@@H](C[C@H](C(C)C)N(C)C(=O)[C@@H](NC(=O)[C@H]2CCCCN2C)C(C)C)OC(C)=O)n1` here?
Answer: < 1.67 nM

Question: What about the TGI (SK-MEL-5 melanoma) of the same molecule?
Answer: 25.2 nM

Question: What about the GI50 (SK-OV-3 ovarian) of the same molecule?
Answer: 2.35 nM

Question: And the TGI (SK-OV-3 ovarian)?
Answer: > 16700 nM

Question: What about the GI50 (HS 578T breast) of the same molecule?
Answer: 3.42 nM

Question: And the TGI (HS 578T breast)?
Answer: > 11800 nM

Question: And the GI50 (K-562 leukemia)?
Answer: < 1.67 nM

Question: What about the TGI (K-562 leukemia) of the same molecule?
Answer: > 16700 nM

Question: What about the GI50 (HOP-62 NSCLC) of the same molecule?
Answer: 3.67 nM

Question: What about the TGI (HOP-62 NSCLC) of the same molecule?
Answer: > 16700 nM

Question: What about the GI50 (NCI-H522 lung) of the same molecule?
Answer: < 1.67 nM

Question: And the TGI (NCI-H522 lung)?
Answer: 2.63 nM

Question: What about the GI50 (RPMI-8226 leukemia) of the same molecule?
Answer: < 1.67 nM

Question: And the TGI (RPMI-8226 leukemia)?
Answer: > 16700 nM

Question: And the GI50 (HCT-15 colon)?
Answer: 5.07 nM

Question: What about the TGI (HCT-15 colon) of the same molecule?
Answer: > 16700 nM

Question: And the GI50 (786-0 renal)?
Answer: 5.83 nM

Question: What about the TGI (786-0 renal) of the same molecule?
Answer: > 16700 nM

Question: And the GI50 (MALME-3M melanoma)?
Answer: < 1.67 nM

Question: What about the TGI (MALME-3M melanoma) of the same molecule?
Answer: > 16700 nM

Question: What about the GI50 (A549 NSCLC) of the same molecule?
Answer: 5.91 nM

Question: And the TGI (A549 NSCLC)?
Answer: > 16700 nM

Question: And the GI50 (OVCAR-8 ovarian)?
Answer: 2.43 nM

Question: What about the TGI (OVCAR-8 ovarian) of the same molecule?
Answer: > 16700 nM

Question: What about the GI50 (HOP-92 NSCLC) of the same molecule?
Answer: < 1.67 nM

Question: And the TGI (HOP-92 NSCLC)?
Answer: 114 nM

Question: And the GI50 (KM12 colon)?
Answer: < 1.67 nM

Question: What about the TGI (KM12 colon) of the same molecule?
Answer: > 16700 nM

Question: And the GI50 (MOLT-4 leukemia)?
Answer: 8.15 nM

Question: And the TGI (MOLT-4 leukemia)?
Answer: > 16700 nM

Question: And the GI50 (RXF 393 renal)?
Answer: < 1.67 nM

Question: And the TGI (RXF 393 renal)?
Answer: > 16700 nM

Question: What about the GI50 (LOX IMVI melanoma) of the same molecule?
Answer: 4.95 nM

Question: What about the TGI (LOX IMVI melanoma) of the same molecule?
Answer: > 16700 nM

Question: What about the GI50 (SR leukemia) of the same molecule?
Answer: < 1.67 nM

Question: And the TGI (SR leukemia)?
Answer: > 16700 nM

Question: And the GI50 (U251 CNS)?
Answer: < 1.67 nM

Question: What about the TGI (U251 CNS) of the same molecule?
Answer: > 16700 nM

Question: What about the GI50 (MDA-MB-435) of the same molecule?
Answer: < 1.67 nM

Question: What about the TGI (MDA-MB-435) of the same molecule?
Answer: 88.1 nM

Question: What about the GI50 (SNB-19 CNS) of the same molecule?
Answer: < 1.67 nM

Question: What about the TGI (SNB-19 CNS) of the same molecule?
Answer: > 16700 nM

Question: What about the GI50 (BT-549 breast) of the same molecule?
Answer: 2.5 nM

Question: What about the TGI (BT-549 breast) of the same molecule?
Answer: 101 nM

Question: And the TGI (TK-10 renal)?
Answer: > 16700 nM

Question: What about the GI50 (OVCAR-5 ovarian) of the same molecule?
Answer: 7.72 nM

Question: And the TGI (OVCAR-5 ovarian)?
Answer: > 16700 nM

Question: What about the GI50 (UACC-62 melanoma) of the same molecule?
Answer: < 1.67 nM

Question: And the TGI (UACC-62 melanoma)?
Answer: > 16700 nM

Question: And the GI50 (DU-145 prostate)?
Answer: < 1.67 nM

Question: And the GI50 (CAKI-1 renal)?
Answer: 1.73 nM

Question: And the TGI (CAKI-1 renal)?
Answer: > 16700 nM

Question: And the GI50 (SN12C renal)?
Answer: 2.66 nM

Question: And the TGI (SN12C renal)?
Answer: > 16700 nM

Question: What about the GI50 (HT29 colon) of the same molecule?
Answer: < 1.67 nM

Question: And the TGI (HT29 colon)?
Answer: > 16700 nM

Question: What about the GI50 (SF-268 CNS) of the same molecule?
Answer: 16.4 nM

Question: And the TGI (SF-268 CNS)?
Answer: > 16700 nM

Question: What about the GI50 (UACC-257 melanoma) of the same molecule?
Answer: 11.8 nM

Question: What about the TGI (UACC-257 melanoma) of the same molecule?
Answer: > 16700 nM

Question: And the GI50 (ACHN renal)?
Answer: < 1.67 nM

Question: And the TGI (ACHN renal)?
Answer: > 16700 nM

Question: What about the GI50 (IGROV1 ovarian) of the same molecule?
Answer: < 1.67 nM

Question: And the TGI (IGROV1 ovarian)?
Answer: > 16700 nM

Question: What about the GI50 (NCI-H460 lung) of the same molecule?
Answer: < 1.67 nM

Question: What about the TGI (NCI-H460 lung) of the same molecule?
Answer: > 16700 nM

Question: And the GI50 (HCT-116 colon)?
Answer: < 1.67 nM

Question: And the TGI (HCT-116 colon)?
Answer: > 6680 nM

Question: What about the GI50 (MCF7 breast) of the same molecule?
Answer: < 1.67 nM

Question: What about the TGI (MCF7 breast) of the same molecule?
Answer: > 16700 nM

Question: And the GI50 (UO-31 renal)?
Answer: 12.7 nM

Question: What about the TGI (UO-31 renal) of the same molecule?
Answer: > 16700 nM

Question: What about the GI50 (MDA-MB-231 breast) of the same molecule?
Answer: 2.36 nM

Question: What about the TGI (MDA-MB-231 breast) of the same molecule?
Answer: 3210 nM

Question: And the GI50 (OVCAR-4 ovarian)?
Answer: 4.77 nM

Question: What about the TGI (OVCAR-4 ovarian) of the same molecule?
Answer: > 16700 nM

Question: What about the GI50 (CCRF-CEM leukemia) of the same molecule?
Answer: 2.03 nM

Question: And the TGI (CCRF-CEM leukemia)?
Answer: > 16700 nM

Question: What about the GI50 (SF-539 CNS) of the same molecule?
Answer: 2.75 nM

Question: And the TGI (SF-539 CNS)?
Answer: 7.95 nM

Question: And the GI50 (OVCAR-3 ovarian)?
Answer: < 1.67 nM

Question: And the TGI (OVCAR-3 ovarian)?
Answer: 2.68 nM

Question: What about the GI50 (PC-3 prostate) of the same molecule?
Answer: < 1.67 nM

Question: What about the TGI (PC-3 prostate) of the same molecule?
Answer: > 16700 nM

Question: What about the GI50 (SF-295 CNS) of the same molecule?
Answer: < 1.67 nM

Question: What about the TGI (SF-295 CNS) of the same molecule?
Answer: 14.2 nM

Question: And the GI50 (NCI-H23 lung)?
Answer: 3.4 nM

Question: What about the TGI (NCI-H23 lung) of the same molecule?
Answer: > 16700 nM

Question: What about the GI50 (HCC-2998 colon) of the same molecule?
Answer: < 1.67 nM

Question: And the TGI (HCC-2998 colon)?
Answer: > 7550 nM

Question: What about the GI50 (NCI/ADR-RES ovarian) of the same molecule?
Answer: 152 nM

Question: And the TGI (NCI/ADR-RES ovarian)?
Answer: > 5170 nM

Question: What about the GI50 (EKVX NSCLC) of the same molecule?
Answer: 4.97 nM

Question: What about the TGI (EKVX NSCLC) of the same molecule?
Answer: > 16700 nM

Question: What about the GI50 (HL-60(TB) leukemia) of the same molecule?
Answer: < 1.67 nM

Question: And the TGI (HL-60(TB) leukemia)?
Answer: 1.81 nM

Question: What about the GI50 (SNB-75 CNS) of the same molecule?
Answer: < 1.67 nM

Question: And the TGI (SNB-75 CNS)?
Answer: > 16700 nM

Question: What about the GI50 (M14 melanoma) of the same molecule?
Answer: < 1.67 nM

Question: What about the TGI (M14 melanoma) of the same molecule?
Answer: 224 nM

Question: What about the GI50 (SW-620 colon) of the same molecule?
Answer: < 1.67 nM

Question: What about the TGI (SW-620 colon) of the same molecule?
Answer: > 16700 nM
